The subject of series [1] is Plasmodium falciparum. Description: Antiplasmodial activity against Chloroquine resistant plasmodium falciparum FCR-3. Type of series: functional, organism-based.
Series [2] is described as follows: Selectivity index, ratio of IC50 for human MDA-MB-231 cells to IC50 for Chloroquine resistant Plasmodium falciparum FCR-3. Type of series: toxicity. The settings on record: read-out: Ratio IC50.
Series [3] deals with Plasmodium falciparum. Kind of series: Antimalarial activity against Plasmodium falciparum 3D7 measured after 24 hrs by hypoxanthine based scintillation counting analysis. The following applies: read-out: ED50 (the source's name). It is filed as functional.
Series [4] relates to Plasmodium falciparum. Description: Antimalarial activity against Plasmodium falciparum 3D7 by H-hypoxanthine incorporation based assay. It is filed as functional, organism-based.
Series [5] deals with Plasmodium falciparum. Kind of series: Antimalarial activity against Plasmodium falciparum Dd2 by H-hypoxanthine incorporation based assay. It is filed as functional, organism-based.
A short description of series [6]: Cytotoxicity against African green monkey Vero cells. It is filed as toxicity, cell-based. The settings on record: chlorocebus sabaeus.
The test system of series [7] is Plasmodium berghei. Kind of series: In vivo antiplasmodial activity against Plasmodium berghei ANKA infected in CD-1 mouse assessed as decrease in parasitaemia at 50 mg/kg, ip measured after 4 days relative to control. The following applies: time 4 day. Type of series: functional. Set-up: scale not given: the % may be the effect or the level left.
The test system of series [8] is Plasmodium berghei. Description: In vivo antiplasmodial activity against Plasmodium berghei ANKA infected in CD-1 mouse assessed as decrease in parasitaemia at 50 mg/kg, ip measured after 7 days relative to control. Set-up: scale not given: the % may be the effect or the level left. The following applies: time 7 day. It is filed as functional.
For series [9], the system named is Plasmodium falciparum. Kind of series: Antimalarial activity against drug resistant Plasmodium falciparum K1. It is filed as functional, organism-based.
Series [10] has as its system Plasmodium falciparum. Description: Antiplasmodial activity against Plasmodium falciparum 3D7 infected in human erythrocytes assessed as growth inhibition. The following applies: 3D7, Erythrocyte. It is filed as functional, organism-based.
The subject of series [11] is Plasmodium falciparum. Kind of series: Antimalarial activity against chloroquine resistant Plasmodium falciparum K1 incubated for 72 hrs by SYBR green staining based fluorescence reader method. It is filed as functional, organism-based. The settings on record: K1, 72 h.
Series [12] in a line: Selectivity index, ratio of CC50 for african green monkey Vero cells to IC50 for Chloroquine resistant Plasmodium falciparum K1. It is filed as toxicity. The settings on record: read-out: Ratio CC50/IC50.
The subject of series [13] is Plasmodium falciparum. Kind of series: Antimalarial activity against Plasmodium falciparum by 96-well microtitre plate method based scintillation counting analysis. Type of series: functional, organism-based.
For another series, the system named is HepG2. Kind of series: Cytotoxicity against human HepG2 cells incubated for 24 hrs by MTT assay. It is filed as functional.
The subject of a further series is A549. Description: Cytotoxicity against human A549 cells incubated for 24 hrs by MTT assay. Type of series: functional. On the technique in general: Formazan colour is commonly taken as a measure of viable cells.
Series [14] can be described thus: Cytotoxicity against […] LLC-PK1 cells incubated for 24 hrs by MTT assay. The following applies: pig. It is filed as toxicity, cell-based, Sus scrofa.
Series [15] in a line: Cytotoxicity against human MRC5 cells incubated for 24 hrs by MTT assay. It is filed as toxicity, cell-based.
Series [16] has as its system Plasmodium falciparum. Kind of series: Antimalarial activity against Plasmodium falciparum W2 incubated for 24 hrs. The following applies: Plasmodium falciparum, W2, 24 h. It is filed as functional, organism-based.
Series [17] deals with Plasmodium falciparum. Kind of series: Antimalarial activity against Plasmodium falciparum. It is filed as functional, organism-based.
Series [18] concerns Plasmodium falciparum. Kind of series: Antimalarial activity against Plasmodium falciparum RKL-2 assessed as inhibition of malarial growth by measuring dead rings/schizonts at 50 ug/ml relative to control. It is filed as functional.
For series [19], the system named is Plasmodium falciparum. Description: Antimalarial activity against Plasmodium falciparum 3D7 assessed as inhibition of malarial growth by measuring dead rings/schizonts at 50 ug/ml relative to control. Type of series: functional.
Series [20] relates to Plasmodium falciparum. Kind of series: Antimalarial activity against Plasmodium falciparum 3D7. Type of series: functional, organism-based.
The test system of series [21] is Plasmodium falciparum. Description: Antimalarial activity against Plasmodium falciparum RKL-2. It is filed as functional, organism-based.
Series [22] relates to Plasmodium falciparum. Kind of series: Antiplasmodial activity against Chloroquine resistant Plasmodium falciparum FcB1 incubated for 48 hrs by SYBR green I based fluorescence assay. Type of series: functional, organism-based. The settings on record: FcB1, 48 h.
The subject of series [23] is Plasmodium berghei. Kind of series: In vivo plasmodial activity against Plasmodium berghei ANKA infected in Swiss mouse assessed as survival rate at 50 mg/kg, ip for 4 days after infection relative to control. Type of series: functional. The settings on record: time 4 day.
Series [24] has as its system Plasmodium falciparum. Kind of series: In vivo antimalarial activity against Plasmodium falciparum 3D70087/N9 infected in humanized mouse model assessed as reduction in parasitemia administered orally for 4 days measured on day 7 relative to control. Set-up: scale not given: the % may be the effect or the level left. Type of series: functional. The settings on record: route po; time 7 day.

Series [25] concerns Plasmodium falciparum. Kind of series: Antimalarial activity against Plasmodium falciparum W2. It is filed as functional, organism-based.
Series [26] relates to Plasmodium falciparum. Kind of series: Antimalarial activity against Plasmodium falciparum D10. Type of series: functional, organism-based.
Series [27] is described as follows: Cytotoxicity against HMEC-1 cells. Type of series: toxicity, cell-based. The settings on record: human.
Series [28] concerns Plasmodium falciparum. Kind of series: Antimalarial activity against Plasmodium falciparum D6. It is filed as functional, organism-based.
In series [29] the test system is Plasmodium falciparum. Description: Antimalarial activity against Plasmodium falciparum TM91C235. It is filed as functional, organism-based.
Series [30] relates to Plasmodium falciparum. Description: Antimalarial activity against Plasmodium falciparum TM90C2B (2007). Type of series: functional, organism-based.
Series [31] concerns Plasmodium falciparum. Kind of series: Antimalarial activity against Plasmodium falciparum TM90C2B (1995). It is filed as functional, organism-based.
The subject of series [32] is Plasmodium berghei. Kind of series: Antimalarial activity against Plasmodium berghei. Type of series: functional, organism-based.
Series [33] has as its system Plasmodium falciparum. Kind of series: Antimalarial activity against Plasmodium falciparum Dd2 by SYBR green method. It is filed as functional, organism-based.
Series [34] has as its system Plasmodium falciparum. Kind of series: Potency index, ratio of chloroquine IC50 to compound IC50 for antimalarial activity against Plasmodium falciparum Dd2. Type of series: functional.
Series [35] relates to Plasmodium falciparum. Kind of series: Antimalarial activity against Plasmodium falciparum 3D7 infected in human erythrocytes. Type of series: functional, organism-based. The settings on record: 3D7, Erythrocyte.
For a further series, the system named is HEK293. Description: Cytotoxicity against HEK293 cells incubated for 48 hrs by MTT assay. It is filed as functional. The settings on record: Homo sapiens.

Values after ≈ are worked out from the molar mass of the structure shown.

This note sets out measurements from ChEMBL document CHEMBL5113376, “Antimalarial application of quinones: A recent update” (Eur J Med Chem, 2021).

The IC50 is the concentration at which inhibition is half-maximal. `CC(C)=CCC/C(=C/CC/C(C)=C/CCc1ccc2c(c1)C(=O)C=C(C)C2=O)C(=O)O` displayed an IC50 with Plasmodium falciparum [1] of 5400 nM. The selectivity ratio in series [2] is 443.
Regarding `Cc1cc(O)c2c(c1)C(O)(c1ccc3c(c1O)C(=O)c1c(O)cc(C)c(O)c1C3=O)c1cccc(O)c1C2=O` (configuration not stated), the EC50 in the series with Plasmodium falciparum [3] amounted to 0.537 µg/mL (≈ 1.02 µM).
Consider `CC1=C(Cc2ccncc2)C(=O)c2ccccc2C1=O`, for which the concentration for half-maximal inhibition (IC50) was 67 nM in the series on Plasmodium falciparum [4] and 69 nM with Plasmodium falciparum [5].
As a reminder, the CC50 is the concentration that lowers cell viability or growth by half. For `CCN(CC)CCCC(C)Nc1ccnc2cc(Cl)ccc12` (configuration not stated) [CHLOROQUINE], half-maximal cytotoxicity in series [6] (CC50) was put at 227000 nM. Moreover, the Activity in the series on Plasmodium berghei [7] came out at 86.3%; in the series on Plasmodium berghei [8], 76.8%.
`CCCn1c2c([n+](C(C)C)c1C)C(=O)c1ccccc1C2=O` had an IC50 in the series with Plasmodium falciparum [9] of 3.2 nM.
In the case of `COC1=C2C[C@@H](C)C[C@H](OC)[C@H](O)[C@@H](C)/C=C(\C)[C@H](OC(N)=O)[C@@H](OC)/C=C\C=C(/C)C(=O)NC(=CC1=O)C2=O` [GELDANAMYCIN], the IC50 with Plasmodium falciparum [10] was 20 nM.
`Cc1cc(O)c2c(c1)C(=O)c1cc(O)c(CN3CCN(C)CC3)c(O)c1C2=O`: the midpoint of inhibition in the series on Plasmodium falciparum [11], the IC50, lay at 2480 nM. For the same compound, half-maximal cytotoxicity in [6] (CC50) was put at 782000 nM. In addition, the selectivity ratio in series [12] stood at 315.
As to `Cc1cc(O)c2c(c1)C(=O)C(c1c(C)cc3c(c1O)C(=O)C=CC3=O)=CC2=O` [DIOSPYRIN], half-maximal inhibition in the series with Plasmodium falciparum [13] (IC50) required 3.29 µg/mL (≈ 8.79 µM).
On to `CC1(C)CCC2=C(O1)C(=O)c1ccccc1C2=O` [ALPHA-LAPACHONE], for which the CC50 with HepG2 and in the series with A549 was 2090 nM in each case. The CC50 at 24 h in series [14] and in [15] was 2090 nM throughout. Also, the IC50 in the series with Plasmodium falciparum [16] was determined as 15800 nM.
Consider `Cc1oc2c(c1C(=O)NC(CCC(N)=O)C(=O)O)C(=O)c1ccccc1C2=O` (configuration not stated), for which the IC50 in the series on Plasmodium falciparum [17] was found to be 2000 nM.
One may read the inhibition as the percentage by which the read-out fell short of the control. For the compound `O=C1C(O)=C(C(c2ccccc2O)N2CCCC2)C(=O)c2ccccc21` (configuration not stated), the inhibition at 50 µg/mL in the series on Plasmodium falciparum [18] was determined as 70%; in the series on Plasmodium falciparum [19] it was 72.5%. Also, the half-maximal inhibitory concentration (IC50) in the series with Plasmodium falciparum [20] stood at 0.411 µg/mL (≈ 1.18 µM); in the series with Plasmodium falciparum [21] it was 1.17 µg/mL (≈ 3.35 µM).
Regarding `COc1cccc2c1C1=C(C(=O)C2=O)C(C)(C)C(C)O1` (configuration not stated), in the series on Plasmodium falciparum [22], inhibition was half-maximal at 630 nM (IC50). In addition, the Activity in the series on Plasmodium berghei [23] is 80%.
For `Cc1n(C(C)C)c2c([n+]1C(C)C)C(=O)c1ccccc1C2=O.[Br-]`, the Activity in the series on Plasmodium falciparum [24] was 90%.
Regarding `COC1=C(Cc2ccc(OC)cc2)C(=O)C2=C(NCCS2(=O)=O)C1=O`, the IC50 in the series on Plasmodium falciparum [25] came to 1210 nM; in the series with Plasmodium falciparum [26], 1220 nM; in [27] it was 17900 nM.
With `CCCCCC[C@H](C)CC1=C(O)C(=O)c2c(C)cccc2C1=O`, the IC50 turned out to be 73 nM in the series with Plasmodium falciparum [28]; 191 nM with Plasmodium falciparum [25]; 229 nM with Plasmodium falciparum [29]; 193 nM with Plasmodium falciparum [30]; 234 nM in the series on Plasmodium falciparum [31]; 246 nM in the series with Plasmodium berghei [32].
`CC1=C(Cc2ccc(NC(=O)OC(C)(C)C)cc2)C(=O)c2ccccc2C1=O`: in the series with Plasmodium falciparum [33], the IC50 stood at 42 nM. Also, the “Ratio IC50” value in the series on Plasmodium falciparum [34] amounted to 3. Besides, the Activity in the series with Plasmodium berghei [7] stood at 75.5%; with Plasmodium berghei [8], 81.8%.
Turning to `O=C1C(O)=C(Cc2ccccc2)C(=O)c2ccccc21`, inhibition with Plasmodium falciparum [35] was half-maximal at 443 nM (IC50). Half-maximal cytotoxicity in the series with HEK293 (CC50) was put at 54600 nM.
